Assay results published in PMC10447463, “Data-mining unveils structure–property–activity correlation of viral infectivity enhancing self-assembling peptides” (Nature Communications, 2023).
Like-named read-outs stand apart in the source and are kept apart here.

Experiments:
[1] = format: physicochemical; conditions: for ThT Cat.: ThT fluorescence category; for ThT Cat. / ThT-Fluorescence (categorical): ThT-active if fluorescence at least twice the control
How it was run: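 Preformed peptide fibrils (1 mg/mL) mixed with 50 µM ThT in PBS, 15 min at RT, fluorescence ex 440/em 488 nm versus PBS blank, triplicates. Zeta potential: peptides at 1 mg/mL in PBS pH 7.4, aged 1 d at RT, diluted in 1 mM KCl, Smoluchowski from electrophoretic mobility.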

[2] = format: physicochemical; parameters: key to Fibril / Fibril Formation / TEM 2cat / Fibril: 1 = fibrils present; 0 non-fibrillar structures; conditions: for Fibril / Fibril / Fibril Formation: TEM; for Fibril / Fibril Formation: 1 mg/mL, uranyl acetate stain, qualitative
[3] = ThT fluorescence relative to blank (42.1851851851852 a.u.)
[4] = ThT fluorescence relative to blank, blank = 42.1851851851852
[5] = FigS12 panel A, fibril category by TEM
[6] = 1 = fibrils present, 0 = non-fibrillar
[7] = 1 = fibrils present, 0 = non-fibrillar structures
[8] = relative to blank 42.1851851851852 a.u.

Substance	Tht rel to blank (42.1851851851852) [1, 3]	Tht rel to blank (42.1851851851852) [1, 4]	Tht category (> 1.5 to blank = +) ([1]; category 1/0)	TEM: 1= fibrils, 0= aggregates (micelle), 0.5 = aggregates and fibrils, -1 = nothing obersved, STD prep [2]	Tht rel to blank (42.1851851851852) [1, 8]	further results
KLKLQLL [TG4 / (KM2)]	0.8415	0.8415	0 (ThT-inactive (N-Fold <2))	1	–	–
KLKQLL	–	–	–	–	–	Tht category (> 2 to blank = +) ([1]; Fig S10 panel D): 0 (ThT-inactive (N-Fold <2)); Tht category (> 2 to blank = +) ([1]; FigS12 panel A): 0 (ThT-inactive (N-Fold <2)); ThT Cat, ([1]; FigS12 panel B): 0 (ThT-inactive (N-Fold <2)); ThT Cat, ([1]; ThT category, 1 if Rel. ThT >2): 0 (ThT-inactive (N-Fold <2)); ThT Cat. ([1]; 1 if Rel. ThT >2): 0 (ThT-inactive (N-Fold <2)); ThT Cat. / ThT-Fluorescence (categorical) [1]: 0 (ThT-inactive (N-Fold <2)); TEM 2cat ([2]; Fig S10 panel D): 0; TEM 2cat [2, 5]: 0; Fibril ([2]; FigS12 panel B): 0; Fibril / Fibril Formation [2]: 0; Fibril [2, 6]: 0; Fibril [2, 7]: 0
KLKQLL [KM27 / psis14]	1.089	1.089	0 (ThT-inactive (N-Fold <2))	0.5	–	–
KWKWQW [KB3]	–	–	0 (ThT-inactive (N-Fold <2))	0	1.518	–
MKFKFQF [DF5 / CK16]	–	–	0 (ThT-inactive (N-Fold <2))	1	0.9846	–
MKIKIQINM [TM41]	–	–	0 (ThT-inactive (N-Fold <2))	1	1.327	–
MKIKIQINMWQ [TM52]	4.061	–	1 (ThT. Cat is 1, if Rel. ThT >2)	1	4.061	–
QCKAKAQA [CK24]	1.319	–	0 (ThT-inactive (N-Fold <2))	0.5	1.319	–
QCKAKAQANMWQ [CK22]	1.496	–	0 (ThT-inactive (N-Fold <2))	0.5	1.496	–
QCKFKFQF [CK9]	2.014	–	1 (ThT. Cat is 1, if Rel. ThT >2)	1	2.014	–
QCKFKFQFNM [CK8]	2.317	–	1 (ThT. Cat is 1, if Rel. ThT >2)	1	2.317	–
QCKFKFQFNMWQ [CK7]	1.854	–	0 (ThT-inactive (N-Fold <2))	1	1.854	–
QCKFKQFF [CK12]	2.349	2.349	1 (ThT. Cat is 1, if Rel. ThT >2)	1	2.349	–
QCKFKQFFNM [CK11]	12.72	12.72	1 (ThT. Cat is 1, if Rel. ThT >2)	0.5	12.72	–
QCKFKQFFNMWQ [CK10]	25.38	25.38	1 (ThT. Cat is 1, if Rel. ThT >2)	0.5	25.38	–
QCKIKIQI [CK3]	2.039	–	1 (ThT. Cat is 1, if Rel. ThT >2)	1	2.039	–
QCKIKIQINM [CK2]	2.548	–	1 (ThT. Cat is 1, if Rel. ThT >2)	1	2.548	–
QCKIKIQINMWQ [EF-C opt]	9.054	–	1 (ThT. Cat is 1, if Rel. ThT >2)	1	9.054	–
QCKIKQII [CK6]	2.961	2.961	1 (ThT. Cat is 1, if Rel. ThT >2)	1	2.961	–
QCKIKQIINM [CK5]	23.32	23.32	1 (ThT. Cat is 1, if Rel. ThT >2)	1	23.32	–
RGDCKFKFQF [TM64/ CN15]	6.788	6.788	1 (ThT. Cat is 1, if Rel. ThT >2)	1	–	–
RGDCKIKIQINM [TM45]	1.835	–	0 (ThT-inactive (N-Fold <2))	1	1.835	Tht category (> 1.5 to blank = +) ([1]; FigS26): 0 (Tht category (> 1.5 to blank = +))
RGDKIKIQI	–	–	–	–	–	Tht category (> 2 to blank = +) ([1]; Fig S10 panel D): 1 (ThT. Cat is 1, if Rel. ThT >2); Tht category (> 2 to blank = +) ([1]; FigS12 panel A): 1 (ThT. Cat is 1, if Rel. ThT >2); ThT Cat, ([1]; FigS12 panel B): 1 (ThT. Cat is 1, if Rel. ThT >2); ThT Cat, ([1]; ThT category, 1 if Rel. ThT >2): 1 (ThT. Cat is 1, if Rel. ThT >2); ThT Cat. ([1]; 1 if Rel. ThT >2): 1 (ThT. Cat is 1, if Rel. ThT >2); ThT Cat. / ThT-Fluorescence (categorical) [1]: 1 (ThT. Cat is 1, if Rel. ThT >2); TEM 2cat ([2]; Fig S10 panel D, fibril category by TEM): 1; TEM 2cat [2, 5]: 1; Fibril ([2]; FigS12 panel B): 1; Fibril / Fibril Formation [2]: 1; Fibril [2, 6]: 1; Fibril [2, 7]: 1
RGDKIKIQI [MG14]	5.578	–	1 (ThT. Cat is 1, if Rel. ThT >2)	1	5.578	Tht category (> 1.5 to blank = +) ([1]; FigS26): 1 (Tht category (> 1.5 to blank = +))
RGDKIKIQIC [MG7/CN1]	19.76	–	1 (ThT. Cat is 1, if Rel. ThT >2)	1	19.76	Tht category (> 1.5 to blank = +) ([1]; FigS26): 1 (Tht category (> 1.5 to blank = +))
